Data from patent publication US10899754B2, “Modulators of indoleamine 2,3-dioxygenase” (GLAXOSMITHKLINE INTELLECTUAL PROPERTY DEVELOPMENT LIMITED, priority 2016, dated 2021).
Where two headings read alike, the source gives them in different places.

Key:
[1] = test system: human epithelial HeLa cells; test: HeLa cytotoxicity assay (CellTiter-Glo); type: cell-based; conditions: pCC50
In short: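 HeLa cells (5,000/well) stimulated with 10 nM IFN-γ, exposed to 11-point 3-fold compound dilutions for 2 days at 37 °C; viability by CellTiter-Glo ATP luminescence. Normalized to cell-free (100% cytotoxicity) and stimulated-cell DMSO (0%) controls; four-parameter fit gives pCC50.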

ePL tagged IDO1 = molecular target: T1, ePL tagged IDO1 (Homo sapiens, UniProt P14902); test: CETSA (Cellular Thermal Shifting assay) in Hela cells; type: binding; conditions: BacMam ePL tagged IDO1, 3 hours at 37° C., heated at 53° C. for 3 min
T1 construct: expressed in transfected cells; host or cells: HeLa cells transduced with BacMam virus
Protocol: Cellular Thermal Shifting assays were used to directly monitor the ligand binding to target proteins in cells. Hela cells were transduced with BacMam virus expressing ePL tagged IDO1 overnight. The cells were then plated over the compounds for 3 hours at 37° C. in cell culture medium containing 1% FBS. The plates were then sealed and heated at 53° C. for 3 min. InCell Hunter reagents were added and luminescence was read in 90 min.

[2] = molecular target: indoleamine 2, 3-dioxygenase (IDO1) (Homo sapiens, UniProt P14902); test: IDO1 HeLa RapidFire MS assay (kynurenine detection by mass spectrometry); type: cell-based; parameters: to induce the expression of indoleamine 2, 3-dioxygenase (IDO1); conditions: HeLa cells, pIC50, read-out: IDO1_HELA_PXC50 (converted)
In short: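 Compound potency reported as pIC50 from kynurenine/internal-standard ratio (RapidFire MS) in supernatant of IFN-γ-induced (10 nM) HeLa cells, 5,000 per well, after 2 days' treatment with 11-point dilutions. Cytotoxicity in the same format by luminescent ATP detection, reported as pCC50.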

T1 sequence (P14902 whole entry): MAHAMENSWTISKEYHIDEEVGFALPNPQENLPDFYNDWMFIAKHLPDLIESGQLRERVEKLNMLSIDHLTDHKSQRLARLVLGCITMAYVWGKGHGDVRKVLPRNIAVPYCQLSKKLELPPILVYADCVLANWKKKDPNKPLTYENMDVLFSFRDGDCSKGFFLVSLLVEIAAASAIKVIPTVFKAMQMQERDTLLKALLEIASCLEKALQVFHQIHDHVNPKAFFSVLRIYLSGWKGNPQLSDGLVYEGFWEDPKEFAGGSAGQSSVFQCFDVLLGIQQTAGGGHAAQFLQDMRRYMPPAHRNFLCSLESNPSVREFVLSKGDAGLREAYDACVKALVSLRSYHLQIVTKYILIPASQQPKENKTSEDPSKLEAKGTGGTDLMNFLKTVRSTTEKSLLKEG
Chain of indoleamine 2, 3-dioxygenase (IDO1) (P14902 whole entry): as above

| SMILES | HELA_IDO1_TOX_PXC50 [1] | EC50 (ePL tagged IDO1; read-out: pXC50_1 (converted)) | IC50 [2] | EC50 (ePL tagged IDO1; read-out: pXC50_2 (converted)) |
| --- | --- | --- | --- | --- |
| CC(C)CN(c1ccc([C@H](C)CC(=O)O)cc1Nc1nc(C(F)(F)F)ns1)C1CCOCC1 [Example 20, (R)-3-(4-(Isobutyl(tetrahydro-2H-pyran-4-yl)amino)-3-((3-(trifluoromethyl)-1,2,4-thiadiazol-5-yl)amino)phenyl)butanoic Acid] | <5 | 9.55 nM | 2.51 nM | – |
| CC(C)CN(c1ccc([C@H](C)CC(=O)O)cc1Nc1nnc(C2CC2)s1)C1CCOCC1 [Example 23, (R)-3-(3-((5-cyclopropyl-1,3,4-thiadiazol-2-yl)amino)-4-(isobutyl (tetrahydro-2H-pyran-4-yl)amino)phenyl)butanoic Acid] | <5 | 331 nM | 3.98 nM | 234 nM |
